How the values were obtained:
Assay in all cases: relative viability (nuclei count vs DMSO), 5 days (fraction); higher = more cells survive
NCI-H2126 = test system: NCI-H2126
Summary of the method: (§1)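 Values are medians from duplicate plates. Each reflects relative viability, defined as the nuclei count of treated wells over that of vehicle wells. Lung cancer cell lines in 1536-well plates were pin-tool dosed one day after seeding with one drug alone or with a fixed anchor-drug dose plus five library-drug doses (not always all listed) in √10 steps, then fixed, stained and imaged at 4× after 5 days.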

NCI-H1915 = test system: NCI-H1915
Summary of the method: as §1

LCLC-97TM1 = test system: LCLC-97TM1
Summary of the method: as §1

HCC-78 = test system: HCC-78
Summary of the method: as §1

ChaGo-K-1 = test system: ChaGo-K-1
Summary of the method: as §1

NCI-H1666 = test system: NCI-H1666
Summary of the method: as §1

NCI-H2087 = test system: NCI-H2087
Summary of the method: as §1

NCI-H2347 = test system: NCI-H2347
Summary of the method: as §1

PC-14 = test system: PC-14
Summary of the method: as §1

NCI-H2405 = test system: NCI-H2405
Summary of the method: as §1

COR-L 105 = test system: COR-L 105
Summary of the method: as §1

HCC-827 = test system: HCC-827
Summary of the method: as §1

NCI-H520 = test system: NCI-H520
Summary of the method: as §1

NCI-H23 = test system: NCI-H23
Summary of the method: as §1

EPLC-272H = test system: EPLC-272H
Summary of the method: as §1

RERF-LC-KJ = test system: RERF-LC-KJ
Summary of the method: as §1

NCI-H647 = test system: NCI-H647
Summary of the method: as §1

LC-2-ad = test system: LC-2-ad
Summary of the method: as §1

201T = test system: 201T
Summary of the method: as §1

H3255 = test system: H3255
Summary of the method: as §1

Structure (SMILES): COc1cc2nccc(Oc3ccc(NC(=O)Nc4cc(C)on4)c(Cl)c3)c2cc1OC [Tivozanib] + CC1(C)CCC(c2ccc(Cl)cc2)=C(CN2CCN(c3ccc(C(=O)NS(=O)(=O)c4ccc(N[C@H](CCN5CCOCC5)CSc5ccccc5)c(S(=O)(=O)C(F)(F)F)c4)cc3)CC2)C1 [Navitoclax] (partner 0.5 µM)
- relative viability (NCI-H2126; first compound 0.005 µM): 0.842
- relative viability (NCI-H2126; first compound 0.01581 µM): 0.818
- relative viability (NCI-H2126; first compound 0.05 µM): 0.963
- relative viability (NCI-H2126; first compound 0.1581 µM): 0.635
- relative viability (NCI-H2126; first compound 0.5 µM): 0.857
- relative viability (NCI-H1915; first compound 0.005 µM): 0.756
- relative viability (NCI-H1915; first compound 0.01581 µM): 0.765
- relative viability (NCI-H1915; first compound 0.05 µM): 0.806
- relative viability (NCI-H1915; first compound 0.1581 µM): 0.838
- relative viability (NCI-H1915; first compound 0.5 µM): 0.771
- relative viability (LCLC-97TM1; first compound 0.005 µM): 0.412
- relative viability (LCLC-97TM1; first compound 0.01581 µM): 0.288
- relative viability (LCLC-97TM1; first compound 0.1581 µM): 0.413
- relative viability (LCLC-97TM1; first compound 0.5 µM): 0.425
- relative viability (HCC-78; first compound 0.005 µM): 0.656
- relative viability (HCC-78; first compound 0.01581 µM): 0.808
- relative viability (HCC-78; first compound 0.05 µM): 0.765
- relative viability (HCC-78; first compound 0.1581 µM): 0.756
- relative viability (HCC-78; first compound 0.5 µM): 0.677
- relative viability (ChaGo-K-1; first compound 0.005 µM): 0.846
- relative viability (ChaGo-K-1; first compound 0.01581 µM): 1.03
- relative viability (ChaGo-K-1; first compound 0.05 µM): 0.802
- relative viability (ChaGo-K-1; first compound 0.1581 µM): 0.645
- relative viability (ChaGo-K-1; first compound 0.5 µM): 0.799
- relative viability (NCI-H1666; first compound 0.005 µM): 0.993
- relative viability (NCI-H1666; first compound 0.01581 µM): 0.96
- relative viability (NCI-H1666; first compound 0.05 µM): 1.02
- relative viability (NCI-H1666; first compound 0.1581 µM): 0.891
- relative viability (NCI-H1666; first compound 0.5 µM): 0.867
- relative viability (NCI-H2087; first compound 0.005 µM): 0.906
- relative viability (NCI-H2087; first compound 0.01581 µM): 1.07
- relative viability (NCI-H2087; first compound 0.05 µM): 1.06
- relative viability (NCI-H2087; first compound 0.1581 µM): 0.917
- relative viability (NCI-H2087; first compound 0.5 µM): 0.906
- relative viability (NCI-H2347; first compound 0.005 µM): 0.735
- relative viability (NCI-H2347; first compound 0.01581 µM): 0.765
- relative viability (NCI-H2347; first compound 0.05 µM): 0.847
- relative viability (NCI-H2347; first compound 0.1581 µM): 0.735
- relative viability (NCI-H2347; first compound 0.5 µM): 0.804
- relative viability (PC-14; first compound 0.005 µM): 0.98
- relative viability (PC-14; first compound 0.01581 µM): 1.04
- relative viability (PC-14; first compound 0.05 µM): 1.11
- relative viability (PC-14; first compound 0.1581 µM): 1.07
- relative viability (PC-14; first compound 0.5 µM): 1
- relative viability (NCI-H2405; first compound 0.005 µM): 0.861
- relative viability (NCI-H2405; first compound 0.01581 µM): 1.09
- relative viability (NCI-H2405; first compound 0.05 µM): 0.74
- relative viability (NCI-H2405; first compound 0.1581 µM): 1.02
- relative viability (NCI-H2405; first compound 0.5 µM): 0.498
- relative viability (COR-L 105; first compound 0.01581 µM): 0.835
- relative viability (COR-L 105; first compound 0.05 µM): 0.829
- relative viability (COR-L 105; first compound 0.1581 µM): 1.17
- relative viability (COR-L 105; first compound 0.5 µM): 0.743
- relative viability (HCC-827; first compound 0.005 µM): 1.01
- relative viability (HCC-827; first compound 0.01581 µM): 1.03
- relative viability (HCC-827; first compound 0.05 µM): 1.02
- relative viability (HCC-827; first compound 0.1581 µM): 1.05
- relative viability (HCC-827; first compound 0.5 µM): 1.03
- relative viability (NCI-H520; first compound 0.005 µM): 1.09
- relative viability (NCI-H520; first compound 0.01581 µM): 0.962
- relative viability (NCI-H520; first compound 0.05 µM): 0.969
- relative viability (NCI-H520; first compound 0.1581 µM): 0.782
- relative viability (NCI-H520; first compound 0.5 µM): 0.887
- relative viability (NCI-H23; first compound 0.005 µM): 0.753
- relative viability (NCI-H23; first compound 0.01581 µM): 0.718
- relative viability (NCI-H23; first compound 0.05 µM): 0.92
- relative viability (NCI-H23; first compound 0.1581 µM): 0.652
- relative viability (NCI-H23; first compound 0.5 µM): 0.938
- relative viability (EPLC-272H; first compound 0.005 µM): 0.916
- relative viability (EPLC-272H; first compound 0.01581 µM): 1.25
- relative viability (EPLC-272H; first compound 0.05 µM): 1.34
- relative viability (EPLC-272H; first compound 0.1581 µM): 0.967
- relative viability (EPLC-272H; first compound 0.5 µM): 0.911
- relative viability (RERF-LC-KJ; first compound 0.005 µM): 0.872
- relative viability (RERF-LC-KJ; first compound 0.01581 µM): 0.828
- relative viability (RERF-LC-KJ; first compound 0.05 µM): 1.13
- relative viability (RERF-LC-KJ; first compound 0.1581 µM): 1.37
- relative viability (RERF-LC-KJ; first compound 0.5 µM): 1.07
- relative viability (NCI-H647; first compound 0.005 µM): 1.12
- relative viability (NCI-H647; first compound 0.01581 µM): 1.24
- relative viability (NCI-H647; first compound 0.05 µM): 1.21
- relative viability (NCI-H647; first compound 0.1581 µM): 1.19
- relative viability (NCI-H647; first compound 0.5 µM): 1.03
- relative viability (LC-2-ad; first compound 0.005 µM): 0.35
- relative viability (LC-2-ad; first compound 0.01581 µM): 0.48
- relative viability (LC-2-ad; first compound 0.05 µM): 0.535
- relative viability (LC-2-ad; first compound 0.1581 µM): 0.448
- relative viability (LC-2-ad; first compound 0.5 µM): 0.427
- relative viability (201T; first compound 0.005 µM): 1.21
- relative viability (201T; first compound 0.01581 µM): 1.17
- relative viability (201T; first compound 0.05 µM): 1.22
- relative viability (201T; first compound 0.1581 µM): 1.17
- relative viability (201T; first compound 0.5 µM): 1.18
- relative viability (H3255; first compound 0.005 µM): 0.446
- relative viability (H3255; first compound 0.01581 µM): 0.482
- relative viability (H3255; first compound 0.05 µM): 0.495
- relative viability (H3255; first compound 0.1581 µM): 0.328
- relative viability (H3255; first compound 0.5 µM): 0.516

Source: the supplement of paper PMC10307832
